From US8580811B2 (Ligand Pharmaceuticals Incorporated, priority 2005, dated 2013)

Each molecule was assayed against T1, human AR (Homo sapiens, UniProt P10275) (assay: IR Binding Assay: whole cell competitive binding of test compounds against 3H-DHT in COS-1 cells transfected with pRShAR).
T1 construct: expressed in transfected cells; host or cells: COS-1 cells
T1 sequence (P10275 1-920): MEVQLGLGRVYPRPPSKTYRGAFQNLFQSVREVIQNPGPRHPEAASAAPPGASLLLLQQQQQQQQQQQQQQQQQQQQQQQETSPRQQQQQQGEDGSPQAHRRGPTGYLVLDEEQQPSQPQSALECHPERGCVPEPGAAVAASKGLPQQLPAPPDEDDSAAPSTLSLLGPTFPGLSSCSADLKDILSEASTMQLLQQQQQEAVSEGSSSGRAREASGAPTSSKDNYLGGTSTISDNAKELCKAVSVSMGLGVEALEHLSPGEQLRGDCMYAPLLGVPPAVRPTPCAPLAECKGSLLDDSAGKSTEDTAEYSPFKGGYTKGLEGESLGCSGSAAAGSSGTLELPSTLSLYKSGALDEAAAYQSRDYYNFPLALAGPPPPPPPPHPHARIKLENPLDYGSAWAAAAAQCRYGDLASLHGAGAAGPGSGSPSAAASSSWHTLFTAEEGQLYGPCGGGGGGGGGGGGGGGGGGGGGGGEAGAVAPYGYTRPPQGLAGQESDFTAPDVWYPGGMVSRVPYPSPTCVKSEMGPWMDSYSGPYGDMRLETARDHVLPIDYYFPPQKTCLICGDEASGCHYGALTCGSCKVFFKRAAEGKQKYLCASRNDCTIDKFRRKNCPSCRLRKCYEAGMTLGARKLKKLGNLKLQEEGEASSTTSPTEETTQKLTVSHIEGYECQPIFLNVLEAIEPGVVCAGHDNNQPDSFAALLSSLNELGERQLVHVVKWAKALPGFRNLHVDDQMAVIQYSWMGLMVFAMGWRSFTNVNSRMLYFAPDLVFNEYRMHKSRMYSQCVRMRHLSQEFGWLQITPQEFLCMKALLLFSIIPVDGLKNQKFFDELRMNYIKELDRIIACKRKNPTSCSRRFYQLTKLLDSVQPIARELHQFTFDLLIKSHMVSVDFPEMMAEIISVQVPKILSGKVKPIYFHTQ
How it was run: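 COS-1 cells transfected with pRShAR plus β-Gal reporter, serum-starved 24 h, then exposed to 1 nM ³H-DHT with compounds at 10^−10 to 10^−6 M for 3 h at 37 °C. Bound ³H-DHT counted in lysates, normalized to β-Gal. IC50 from log-logit plot; Ki via Cheng-Prusoff using Kd from Scatchard saturation analysis.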
With `Cc1c(-c2nccs2)n(CC(F)(F)F)c2ccc3[nH]c(=O)cc(Cl)c3c12` [Compound 252, 9-Chloro-1-methyl-2-(1,3-thiazol-2-yl)-3-(2,2,2-trifluoroethyl)-3,6-dihydro-pyrrolo[3,2-f]-quinolin-7-one] the Ki was under 5 nM. For `Cc1c(C(F)(F)F)n(CC(F)(F)F)c2ccc3[nH]c(=O)cc(Cl)c3c12` [Compound 229, 9-Chloro-1-methyl-3-(2,2,2-trifluoro-ethyl)-2-trifluoromethyl-3,6-dihydro-pyrrolo[3,2-f]-quinolin-7-one], the Ki was under 5 nM. With `CC1c2c(ccc3[nH]c(=O)cc(Cl)c23)N(CC(F)(F)F)C1c1cccc(C(F)(F)F)c1` (racemic) [Compound 159, (±)-9-Chloro-1-methyl-3-(2,2,2-trifluoroethyl)-2-(3-trifluoromethylphenyl)-1,2,3,6-tetrahydropyrrolo[3,2-f]quinolin-7-one] the Ki was over 10 nM. `Cc1c(C)n(CC(O)CO)c2ccc3[nH]c(=O)cc(Cl)c3c12` (centres unmarked) [Compound 290, 9-Chloro-3-(2,3-dihydroxypropyl)-1,2-dimethyl-3,6-dihydro-pyrrolo[3,2-f]-quinolin-7-one] gave a Ki of over 10 nM. `Cc1c(-c2cccs2)n(C[C@@H](O)C(F)(F)F)c2ccc3[nH]c(=O)cc(Cl)c3c12` [Compound 282, (R)-9-Chloro-1-methyl-2-thiophen-2-yl-3-(3,3,3-trifluoro-2-hydroxy-propyl)-3,6-dihydro-pyrrolo[3,2-f]quinolin-7-one] gave a Ki of under 5 nM. With `Cc1c(C)n(C)c2ccc3[nH]c(=O)cc(Cl)c3c12` [Compound 208, 9-Chloro-1,2,3-trimethyl-3,6-dihydro-pyrrolo[3,2-f]quinolin-7-one] the Ki was 5 to 10 nM. Work on `Cc1c(-c2ccc(F)cc2)n(CC(F)(F)F)c2ccc3[nH]c(=O)cc(Cl)c3c12` [Compound 194, 9-Chloro-2-(4-fluorophenyl)-1-methyl-3-(2,2,2-trifluoroethyl)-3,6-dihydro-pyrrolo[3,2-f]quinolin-7-one] yielded a Ki of under 5 nM. Work on `Cc1c(CO)n(CC(F)(F)F)c2ccc3[nH]c(=O)cc(C(F)(F)F)c3c12` [Compound 235, 2-Hydroxymethyl-1-methyl-3-(2,2,2-trifluoro-ethyl)-9-trifluoromethyl-3,6-dihydro-pyrrolo[3,2-f]-quinolin-7-one] yielded a Ki of over 10 nM. In the case of `Cc1c(C)n(CCO)c2ccc3[nH]c(=O)cc(C(F)(F)F)c3c12` [Compound 240, 1,2-Dimethyl-3-(2-hydroxyethyl)-9-trifluoromethyl-3,6-dihydro-pyrrolo[3,2-f]quinolin-7-one], the Ki is reported as over 10 nM. For `Cc1c(C)n(CC(O)C(F)(F)F)c2ccc3[nH]c(=O)cc(Cl)c3c12` (racemic) [Compound 231, (±)-9-Chloro-1,2-dimethyl-3-(3,3,3-trifluoro-2-hydroxy-propyl)-3,6-dihydro-pyrrolo[3,2-f]-quinolin-7-one], the Ki was under 5 nM. Work on `CCn1c(C)c(C)c2c3c(Cl)cc(=O)[nH]c3ccc21` [Compound 196, 9-Chloro-1,2-dimethyl-3-ethyl-3,6-dihydro-pyrrolo[3,2-f]quinolin-7-one] yielded a Ki of under 5 nM. With `Cc1c(-c2ccccc2)n(CC(F)(F)C(F)(F)F)c2ccc3[nH]c(=O)cc(Cl)c3c12` [Compound 218, 9-Chloro-1-methyl-3-(2,2,3,3,3-pentafluoropropyl)-2-phenyl-3,6-dihydro-pyrrolo[3,2-f]-quinolin-7-one] the Ki was under 5 nM. With `Cc1ccc(-c2c(C)c3c4c(Cl)cc(=O)[nH]c4ccc3n2C[C@@H](O)C(F)(F)F)s1` [Compound 285, (R)-9-Chloro-1-methyl-2-(5-methylthiophen-2-yl)-3-(3,3,3-trifluoro-2-hydroxy-propyl)-3,6-dihydro-pyrrolo[3,2-f]quinolin-7-one] the Ki was under 5 nM. `Cc1c(C)n(CCC(F)(F)F)c2ccc3[nH]c(=O)cc(Cl)c3c12` [Compound 213, 9-Chloro-1,2-dimethyl-3-(3,3,3-trifluoropropyl)-3,6-dihydro-pyrrolo[3,2-f]quinolin-7-one] showed a Ki of under 5 nM.
